From patent US20260207535A1, “CRIBLAGE INHIBITEURS USP8” (COMMISSARIAT A L'ENERGIE ATOMIQUE ET AUX ENERGIES …, priority 2022, published 2026)

Key:
AtT-20 pituitary cells = experiment: Inhibition of ACTH secretion in pituitary cells (ACTH EIA on supernatant); assay type: cell-based, mouse; details: 25 μM, 24-hour treatment; for activity at 25 µM: read-out: ACTH secretion % of control (DMSO) at 25 μM
Protocol: ACTH release (percent comparison to DMSO control). Briefly, 12,500 AtT-20 cells per well were seeded in a 96-well plate. After 24 hours exposure, cells were treated with each compound at the indicated final concentration, or with DMSO alone (control condition compound solvent) or with corticotropin releasing factor (indicated CRF) at 100 nM. After a 24-hour treatment, cell supernatants were collected and stored at −80° C., prior to quantification of ACTH concentration using ACTH chemiluminescent EIA kit (Phoenix Pharmaceuticals, Inc.). Determination of ACTH concentrations was based on the best-fitting ACTH standard curve and P values were calculated using one-way ANOVA, using Prism 9 software (GraphPad Software, Inc.) ns (P=0.12). **P<0.002. ***P<0.001. All compounds were tested in technical triplicates. One representative experiment out of three is presented.
FIG. 4: illustrates a decrease of ACTH secretion by AtT-20 cells after 24-hour treatment of halogenated salicylanilides. 12,500 AtT-20 cells per well were seeded in a 96-well plate. […] After a 24-hour treatment, cell supernatants were collected and stored at −80° C., prior to quantification of ACTH concentration using ACTH chemiluminescent EIA kit (Phoenix Pharmaceuticals, Inc.). Determination of ACTH concentrations was based on the best-fitting ACTH standard curve and P values were calculated by ordinary one-way ANOVA using Prism 6 software (GraphPad Software, Inc), ns (not significant), **** P<0.0001. Compounds were tested in technical triplicates.
12,500 AtT-20 cells per well were seeded in a 96-well plate. After 24 hours, cells were treated with compounds (corresponding chemical formula are indicated in Table 1) at 25 μM final concentration, or with DMSO alone (compound solvent). After a 24-hour treatment, cell supernatants were collected and stored at −80° C., prior to quantification of ACTH concentration using ACTH chemiluminescent EIA kit (Phoenix Pharmaceuticals, Inc.). Determination of ACTH concentrations was based on the best-fitting ACTH standard curve and P values were calculated by ordinary one-way ANOVA using Prism 6 software (GraphPad Software, Inc), ns (not significant), *P<0.05, ***P<0,0001. Compounds were tested in technical triplicates.
Mouse AtT-20 pituitary cell line were used as a powerful and well-characterized model to monitor ACTH secretion using an enzyme immunoassay (EIA) kit.
Mouse AtT-20 cells were obtained from the American Type Culture Collection and maintained on DMEM containing 10% fetal bovine serum, 100 μg/mL streptomycin and 100 U/mL penicillin at 37° C. with 5% CO2 after recovery from long-term storage on liquid nitrogen-vapor phase.
The ACTH secretion levels of AtT-20 cell culture was monitored on the supernatant of AtT-20 cells treated or not by increasing doses of compounds belonging to the family of halogenated salicylanilides chemicals.
1.25×10^4 AtT20 cells were seeded on polylysine-coated 96-well culture vessels on 150 μL of complete medium. After 24 hours, cells were treated with stock compounds to a final DMSO concentration of 0.5%. After 24 hours of treatment, cell culture supernatant was collected, cleared for 10 min at 1000×g at 4° C., diluted or not in assay buffer (Phoenix Peptide ACTH EIA EK-001-21) and frozen at −80° C. for subsequent processing according to the instructions of the kit's manufacturer.

[1] = target: T1, Full length USP8 (USP8FL) (Homo sapiens, UniProt P40818); experiment: USP8FL (full length USP8) enzymatic inhibition, Ub-Rhodamine 110 hydrolysis in L-cysteine buffer; assay type: biochemical; details: USP8 FL 75 nM, Ub-Rho 0.1 μM, L-cysteine buffer; read-out: USP8FL inhbition IC50 [μM] (CI: Confidence Interval)
T1 construct: purchased BostonBiochem E-520
T1 sequence (P40818 1-1118): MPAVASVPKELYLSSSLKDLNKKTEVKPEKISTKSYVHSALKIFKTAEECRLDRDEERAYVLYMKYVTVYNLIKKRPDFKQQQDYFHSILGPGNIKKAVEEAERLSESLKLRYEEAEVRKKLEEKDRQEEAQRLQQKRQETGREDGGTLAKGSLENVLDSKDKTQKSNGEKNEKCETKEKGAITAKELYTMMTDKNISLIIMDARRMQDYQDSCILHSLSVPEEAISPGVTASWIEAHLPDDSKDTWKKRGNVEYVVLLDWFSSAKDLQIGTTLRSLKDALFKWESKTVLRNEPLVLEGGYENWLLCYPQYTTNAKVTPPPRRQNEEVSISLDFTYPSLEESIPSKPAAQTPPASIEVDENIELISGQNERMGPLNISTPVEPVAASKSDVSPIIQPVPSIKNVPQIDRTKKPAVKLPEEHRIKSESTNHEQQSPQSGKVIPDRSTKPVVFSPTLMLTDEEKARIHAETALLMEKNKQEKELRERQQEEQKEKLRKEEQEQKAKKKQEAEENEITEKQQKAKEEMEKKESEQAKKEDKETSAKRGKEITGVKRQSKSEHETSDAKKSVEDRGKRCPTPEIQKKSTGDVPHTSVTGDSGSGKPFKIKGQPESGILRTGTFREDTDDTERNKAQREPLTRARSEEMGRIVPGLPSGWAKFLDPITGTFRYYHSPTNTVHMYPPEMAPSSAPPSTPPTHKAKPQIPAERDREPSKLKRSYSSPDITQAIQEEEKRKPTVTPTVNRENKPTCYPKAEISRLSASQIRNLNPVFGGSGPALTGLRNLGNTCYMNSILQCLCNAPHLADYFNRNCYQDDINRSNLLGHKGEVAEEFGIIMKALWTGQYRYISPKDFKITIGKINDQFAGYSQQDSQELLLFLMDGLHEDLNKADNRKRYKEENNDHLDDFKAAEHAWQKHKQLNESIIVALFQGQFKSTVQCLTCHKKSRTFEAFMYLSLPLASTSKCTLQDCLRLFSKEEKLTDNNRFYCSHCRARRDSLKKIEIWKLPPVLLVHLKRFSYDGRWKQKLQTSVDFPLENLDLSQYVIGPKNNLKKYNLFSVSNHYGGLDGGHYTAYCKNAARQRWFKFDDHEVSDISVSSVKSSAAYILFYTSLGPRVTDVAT
Protocol: USP8 FL (USP8 Full Length) was incubated at a concentration of 75 nM in the presence of Ub-Rho (UBIQUIGENT ref. 60-0117-050) at a final concentration of 0.1 μM, in conditions ensuring linearity of enzyme activity throughout the assay in a specific buffer. Compounds were added to the reaction mix at different doses just before the substrate. The enzymatic reaction kinetics were monitored by measuring fluorescence elicited by the hydrolysis of Ub-Rho over 30 min.
In this setup, an in-house purified catalytic domain of USP8 (USP8CD) was used at a concentration of 80 nM in the presence of the artificial substrate Ubiquitin-Rhodamine 110 (Ub-Rho) (ref: 60-0117-050 Ubiquigent) at a final concentration of 0.1 μM, in conditions ensuring linearity of enzyme activity throughout the assay incubation time. Enzymatic assay was performed in a Tris HCl buffer (40 mM Tris HCl pH 7.4, Ovalbumine 0.5 mg/ml, Cysteine HCl 5.5 mM). Compounds to be tested were added to the reaction mix and incubated with enzyme for 20 min, before the substrate. The enzymatic reaction kinetics were monitored by measuring fluorescence elicited by the hydrolysis of the peptidyl Ub-Rho over 30 minutes. The negative control was the solvent DMSO at 1%.
Full length USP8 (USPBFL) (BostonBiochem ref. E-520) were used at a concentration of 75 nM in the presence of a ubiquitin substrate, i.e., the Ub-Rhodamine 110 (Ub-Rho) (Ubiquigent ref. 60-0117-050) at a final concentration of 0.1 μM. Enzymatic assays were performed as described for USP8-CD except that USP-FL was used at a concentration of 75 nM. The compounds were used at a final concentration of 0.1, 1, 5, 10, 50 and 100 μM in DMSO 0.5%. The USP8 catalytic activity was monitored both before adding the substrate (TO) and after twenty minutes of incubation at room temperature (Final Time TF). The enzymatic reaction kinetics were monitored by measuring fluorescence elicited by the hydrolysis of the Ub-Rho bound over 30 minutes.

AtT-20 cells = experiment: Cytotoxicity towards AtT-20 cells (PrestoBlue viability assay); details: 25 μM, 24-hour exposure
Description: The AtT-20 cells viability was monitored in the conditions used to follow ACTH secretion. The viability of treated cells was concomitantly evaluated using a Cell Viability Reagent (monitoring of the cells' reducing capacity) (PrestoBlue® assay, Molecular Probes) with the aim to determine non-toxic doses of cell treatment.
After the collection of the supernatant sample for the ACTH assay in the previous step, cells were supplemented with the PrestoBlue™ cell viability reagent (Invitrogen™ A13261) at 10% final volume, and re-incubated at 37° C. for 30 minutes. Fluorescence was then read with a FLUOstar OPTIMA microplate reader.

[2] = Mus musculus, AtT20, AtT-20 supernatant

IC50 [1]	Compound	inhibition of ACTH at 25 μM, in words (FIG. 4, FIG. 5) (AtT-20 pituitary cells)	activity at 25 µM (AtT-20 pituitary cells; [2])	AtT-20 cell viability (PrestoBlue assay) % of control (DMSO) at 25 μM Mean (SD) (AtT-20 cells)	ACTH secretion % of control (DMSO) at 25 μM (AtT-20 pituitary cells; AtT-20 supernatant)	inhibition at 25 µM (AtT-20 pituitary cells; Mus musculus, AtT20, p<0.05)
> 40 µM	O=C(CSc1ccccc1F)Nc1cccc(OCc2ccccn2)c1 [Z393438700]	ineffective	92%	101.1 (16.04) %		
> 40 µM	O=C(NCc1cccc(OCc2ccccn2)c1)c1csc(Br)c1 [Z424433412]	ineffective	80%	98.93 (14.69) %		20%
> 40 µM	Cc1ccc(NC(=O)Cn2ccccc2=O)c(OCc2ccccc2)c1 [Z738998144]	ineffective	90%	95.98 (15.33) %		

Further lines, the compound ahead of its results:

Compound	IC50 [1]	inhibition of ACTH at 25 μM, in words (FIG. 4, FIG. 5) (AtT-20 pituitary cells)	activity at 25 µM (AtT-20 pituitary cells; [2])	AtT-20 cell viability (PrestoBlue assay) % of control (DMSO) at 25 μM Mean (SD) (AtT-20 cells)	ACTH secretion % of control (DMSO) at 25 μM (AtT-20 pituitary cells; AtT-20 supernatant)	inhibition at 25 µM (AtT-20 pituitary cells; Mus musculus, AtT20, p<0.05)
O=C(Nc1ccc(O)cc1)c1cc(I)ccc1O [Z69118571]	> 100 µM	ineffective	101%	106.7 (20.87) %		
O=C(Nc1ccc(Cl)cc1C(=O)c1ccccc1F)c1ccc(=O)[nH]c1 [Z220328740]	> 40 µM	ineffective		102.9 (15.16) %	82%	
